Reference: patent US20240050466A1, “CELLULAR HEALTH NUTRITIONAL PRODUCT” (GLAXOSMITHKLINE CONSUMER HEALTHCARE HOLDINGS (US) LLC, priority 2020, published 2024)

Experiments:
[1] = Summary of bioefficacy, plausibility and criticality of micronutrients in F2; details: grade Low/medium/High, key not given
Source text: Summary Table of Bioefficacy, Plausibility and Criticality of Micronutrients in F2

gene expression = details: hesperidin intake in humans; cited from earlier work
[2] = cited from earlier work
[3] = in vivo, cited from earlier work

For `COc1ccc([C@@H]2CC(=O)c3c(O)cc(O[C@@H]4O[C@H](CO[C@@H]5O[C@@H](C)[C@H](O)[C@@H](O)[C@H]5O)[C@@H](O)[C@H](O)[C@H]4O)cc3O2)cc1O` [Hesperidin, hesperidin], the Bioefficacy [1] is given as “medium” and the “number of genes whose expression is modulated” value (gene expression) is given as “about 1,819 genes”.

With Vitamin E the Bioefficacy [1] was “Low”.

In the case of `CC(=O)Oc1c(C)c(C)c2c(c1C)CCC(C)(CCC[C@H](C)CCC[C@H](C)CCCC(C)C)O2` (stereo partly drawn) [RRRDL-alpha-Tocopherol Acetate], the “safe upper limit for adults” value [2] is given as 273 mg/day.

For `CC1=C[C@H](O)CC(C)(C)[C@H]1/C=C/C(C)=C/C=C/C(C)=C/C=C/C=C(C)/C=C/C=C(C)/C=C/C1=C(C)C[C@@H](O)CC1(C)C` [Lutein, trans-lutein], the Bioefficacy [1] was “medium”.

For `O=C1O[C@H]([C@@H](O)CO)C(O)=C1O` [Vitamin C, ascorbic acid], the Bioefficacy [1] was “medium”.

For `NCCC(=O)N[C@@H](Cc1cnc[nH]1)C(=O)O` [Carnosine, L-Carnosine], the Bioefficacy [1] was “Low”.

With `CC(C)=CCC/C(C)=C/C=C/C(C)=C/C=C/C(C)=C/C=C/C=C(C)/C=C/C=C(C)/C=C/C=C(\C)CCC=C(C)C` [Lycopene, lycopene] the Bioefficacy [1] was “High”.

In the case of `C[Se]CC[C@H](N)C(=O)O` [Selenium, selenomethionine], the Bioefficacy [1] is given as “medium”, the “reference dose (RfD) or NOAEL for Se” value ([3]; human) is given as 350 µg/day and the “reference dose (RfD) or NOAEL for Se per body weight” value [3] is given as 5 ug Se/(kg body per day).
